SMILES	melting point [°C]
CCOc1ccc(Cc2nccc3cc(OCC)c(OCC)cc23)cc1OCC	100
NC(=O)[C@@H]1CCCC[C@@H]1O (relative stereo)	115 to 119
CCCCNC(=O)C(c1cc2ccccc2c2ccccc12)N(Cc1ccco1)C(=O)Cc1ccccc1 (centres undefined)	185
OCc1ccc(-c2cncnc2)cc1	127 to 130
O=CNNC=O	156
CCCCCCCCCCCCCCCCCC[Si](C)(C)Cl	30
CCOC(=O)c1c(N)sc2c1CCC2	90 to 94
OCC1OC(n2cnc3c(S)ncnc32)C(O)C1O (centres undefined)	218 to 221
COc1cc(OC)c(OC)cc1/C=C/C(=O)O	164 to 167
CC1CC(C)(C)CC(OOC(C)(C)C)(OOC(C)(C)C)C1 (centres undefined)	-20
Clc1ccc(Cl)c(-c2cc(Cl)c(Cl)c(Cl)c2)c1	105
CCCCCCCCCCCCCCCCCC(=O)OC1CCC2(C)C(=CCC3C2CCC2(C)C(C(C)CCCC(C)C)CCC32)C1 (centres undefined)	79 to 83
c1cnc(-c2noc(C3CCNCC3)n2)cn1	87 to 89
COC(=O)C(C)Oc1ccc(Oc2ccc(Cl)cc2Cl)cc1 (centres undefined)	44
CC(=O)OCC1OC(n2cnc3c(N)ncnc32)C(OC(C)=O)C1OC(C)=O (centres undefined)	174 to 175
NC(=O)c1cc(Cl)nc(Cl)c1	202 to 206
O=C(O)c1cncc(Br)c1	184
Cc1ccc(N/N=C(/C#N)c2nc(-c3ccc(Cl)cc3)cs2)cc1	208
COC1C(O)C(C)OC(OC2CCC3(C=O)C(CCC4C3CCC3(C)C(C5=CC(=O)OC5)CCC43O)C2)C1O (centres undefined)	162
CCOC(=O)C(Cl)Cc1cc(-n2nc(C)n(C(F)F)c2=O)c(F)cc1Cl (centres undefined)	-22.1
Cc1ccc(C2C(C#N)=C(N)Oc3c2c(C(F)(F)F)nn3-c2ccccc2)cc1 (centres undefined)	205
CC(=O)NCCSC(C)=O	32.5
Cc1ccc2c(CCl)c(C)ccc2c1CCl	228
COC(=O)C1(C(=O)OC)Cc2ccc(C)cc2C(=O)O1	120 to 121
CCOC(=O)c1csc(N2CCOCC2)n1	88.5 to 90
O=C1c2ccccc2NC1(OC1(c2ccccn2)Nc2ccccc2C1=O)c1ccccn1 (centres undefined)	240
C1CCC2CCCC2C1 (centres undefined)	-53

SMILES	melting point [°C]
O=C(NCC1CCCCN1)c1cc(OCC(F)(F)F)ccc1OCC(F)(F)F (centres undefined)	146
S=C=Nc1ccc2c(c1)OCO2	57 to 59
COc1c(C)c(C)c(OC)c2c1CC2Cl (centres undefined)	113
Cc1ccccc1NC(=S)c1cc(C(C)(C)C)c(O)c(C(C)(C)C)c1	257 to 258
O=C1[C@@H](Oc2ccccc2)[C@@H](c2ccccc2)N1[C@@H](Sc1ccccc1)c1ccccc1	194
CCCCCCCCCCCC(=O)OCC	-2
COc1cc2c(c3oc(=O)c4c(c13)CCOC4=O)C1CCOC1O2 (centres undefined)	237 to 240
NC(=O)c1cc(Cl)cc(Cl)c1	160 to 162
COC(=O)C(C)(C)C1=CCC2(C)C(CCC3C4CCC(O)C4(C)CCC32)C1 (centres undefined)	150
CCOC(=O)C1=C(N)Oc2ccc(Br)cc2C1C(C#N)C(=O)OCC (centres undefined)	105 to 108
COc1nsc(Nc2ccc(Br)cc2)n1	237 to 239
Brc1ccc(Oc2cc(Br)c(Br)cc2Br)c(Br)c1	82
CNC(=O)Oc1ccc(C)c(C)c1Cl	124
CCC(C)(O)CNC1C2CCC(C)(C1O)C2(C)C (centres undefined)	119
NC(=S)c1ccc(F)cc1F	131
COc1ccc(/N=N/c2c(N)nn3c(-c4ccccc4)cc(=O)[nH]c23)cc1	278
CCOC(=O)N1CCNCC1	120
Cc1cc(N)cc(C)n1	192
CCCCCCCCCCCCCCCCCCOCC(O)CO (centres undefined)	70.5
CCOC(=O)c1c(N)sc2c1CCCCC2	89 to 90
CC1CC(=O)OC(=O)C1	40 to 45
CCOC(OCC)C(N)=S	91 to 94
OCc1ccc(-c2ccncc2)cc1	173 to 176
COC(=O)c1ccc(CCl)o1	32 to 36
COCc1cc(=O)oc2cc(N)ccc12	184
Cc1cc([N+]([O-])=Nc2ccc(N=Nc3ccccc3)cc2)ccc1N=Nc1ccc(N=Nc2ccccc2)cc1	193
O=[N+]([O-])C(Br)(Br)Br	10

SMILES	melting point [°C]
CCOP(=O)(OCC)ON1C(=O)c2cccc3cccc(c23)C1=O	177
NC(=O)Nc1ccc(C2=NNC(=O)CC2)cc1	215 to 218
C=CCCCCCCCCC(=O)OC	-27.5
O=C(O)CNC(CO)(CO)CO	187
Cc1cc(C)cc(S(=O)(=O)Cl)c1	93
O=c1oc2ccccc2c(O)c1C1CC(c2ccc(-c3ccc(Br)cc3)cc2)Cc2ccccc21 (centres undefined)	230
CCCCC(N)P(=O)(O)O (centres undefined)	267 to 269
COC1(C)OC(CNc2ccc(S(C)(=O)=O)cc2)C(CNc2ccc(S(C)(=O)=O)cc2)OC1(C)OC (centres undefined)	194 to 195
C=C[Si](c1ccccc1)(c1ccccc1)c1ccccc1	63 to 70
NS(=O)(=O)c1cc(F)ccc1F	141
FC(F)(F)C(F)(F)C(F)(F)N(C(F)(F)C(F)(F)C(F)(F)F)C(F)(F)C(F)(F)C(F)(F)F	-52
Cc1cc(C)c(S(=O)(=O)n2ccnc2)c(C)c1	95 to 99
CC(C)=CCCC(C)=CC=CC(C)=CC=CC(C)=CC=CC=C(C)C=CC=C(C)C=CC=C(C)CCC=C(C)C	175
CCCCc1ccc(/C=N/c2ccc(C(C)=O)cc2)cc1	83 to 93
Fc1ccc(OCC2CO2)cc1 (centres undefined)	19.5
Clc1ccc(C2C3CCc4ccccc4C3=NN2c2ccccc2)cc1 (centres undefined)	168 to 170
CC(=O)N[C@@H](CC(C)C)C(=O)O	178
N#Cc1cccc(CBr)c1	94
O=C(O)c1c(Br)cc(Br)c(O)c1Br	147
O=C1CCCC1C1CCCC1 (centres undefined)	-13
O=C1CCCCCCCC1	34
O=C(O)CCCCCCCCCCBr	57
NNC(=O)Cc1nc(-c2cnccn2)no1	184 to 186
CCOC(=O)CCC(=O)CC1(O)C2(Cl)C3(Cl)C4(Cl)C(Cl)(Cl)C5(Cl)C3(Cl)C1(Cl)C5(Cl)C42Cl (centres undefined)	91
O=C(Oc1c(F)c(F)c(F)c(F)c1F)c1ccccc1N1CCOCC1	87 to 90

Now from value to compound:

melting point [°C]	SMILES
210	O=C1OC(c2ccccc2)=N/C1=C/c1ccc(-c2ccccc2[N+](=O)[O-])o1
47	COc1cccnc1Cl
165 to 166	Cc1ccc2cc([N+](=O)[O-])ccc2n1
200	N/N=C(/C(=O)c1ccc2c3c(cccc13)CC2)c1ccccc1
136	O=[N+]([O-])c1cc([N+](=O)[O-])c(OCCO)cc1OCCO
61	O=[N+]([O-])c1ccc(Br)c(Cl)c1
139	Cc1ccc(C(=O)C=CC(=O)O)cc1
151 to 152	O=C(O)c1cccc(Cn2cccn2)c1
100 to 104	COc1ccc2ccccc2c1CO
57.5	N#CCc1cccc(C(F)(F)F)c1Cl
68 to 70	COC(=O)[C@H](CCC(=O)O)NC(=O)OCc1ccccc1
51	COc1ccc(C=O)cc1Br
54 to 56	Nc1ccccc1-c1cnco1
74	O=[N+]([O-])c1ccccc1SCl
100	CCC(=O)c1ccc(OCc2ccccc2)cc1
73	OCc1ccc(I)cc1
272 to 273	Nc1c([N+](=O)[O-])ccc2ncccc12
60	CC(C)[C@H](NC(=O)OCc1ccccc1)C(=O)O
238	Oc1ncnc2cccc(F)c12
65 to 66	O=C=Nc1ccc(-n2cccc2)cc1
240	O=[N+]([O-])c1cccc(-c2nnc3n2CN(c2cccc([N+](=O)[O-])c2)CS3)c1
52 to 54	CC(C)Cc1ccc(C(=O)C(C)Cl)cc1 (centres undefined)
63 to 64	O=Cc1cccc(CN2CCOCC2)c1

melting point [°C]	SMILES
-43.1	CC1CCc2ccccc2C1 (centres undefined)
84 to 86	Cn1ccc2cc(C=O)ccc21
97 to 99	O=C(O)CCc1ccc(Cl)c(Cl)c1
72 to 74	CCOC(=O)CN(C)C(=O)c1nn(-c2ccccc2)nc1C
110	COc1ccc2c(=O)cc(-c3ccccc3)oc2c1
154 to 155	CCOC(=O)Cc1cc(C(=NNc2ccccc2)C(=O)OCC)c([N+](=O)[O-])cc1[N+](=O)[O-]
184	CC(C)(C)N(NC(=O)c1ccccc1)C(=O)c1ccccc1F
94	CC(C(=O)O)c1cccc(C(=O)c2ccccc2)c1 (centres undefined)
34 to 38	CCCCCCCCCC(=O)c1ccccc1
138 to 142	O=S1(=O)C=Cc2ccccc21
141	Nc1cccc(S(N)(=O)=O)c1
85	FC(F)(F)C(F)(F)C(F)(F)c1cc(-c2ccccc2)[nH]n1
60.5	O=C(C=Cc1ccco1)C=Cc1ccco1
160	CS(=O)(=O)c1ccc(S(=O)(=O)Cl)cc1
164	O=C(NNc1ccccc1)C1CCCCC1
300	O=C(O)c1cc(S(=O)(=O)F)c2ccccc2c1O
126 to 132	Cc1cc(Cl)cc([N+](=O)[O-])c1N
234	Clc1ccccc1-c1nc2ccccc2[nH]1
237 to 239	Cc1c(NC(=O)C(C(F)(F)F)C(F)(F)F)c(=O)n(-c2ccccc2)n1C
37	O=C(OCCO)c1ccccc1O
145	CCCOc1ccc(C(=O)O)cc1
65 to 68	CC(C)(C)OC(=O)N[C@@H](CCC(=O)OCc1ccccc1)C(=O)O
